What was measured:
Assay type in all cases: cell-based
[1] = system: Loblolly pine megagametophytes; assay: Loblolly pine extrusion and initiation on solid media #1042 (no ABA) with brassinolide, eight weeks
Procedure: The promotion of extrusion and initiation in Example 4 was obtained on media containing both brassinolide and abscisic acid (ABA). ABA is known in the art to enhance initiation. This experiment was conducted to determine if brassinolide will promote initiation independently of ABA. The explants were megagametophytes from summer cone collections from four individual trees, each representing a distinct genotype. The seeds contained Stage 2-4 zygotic embryos. Megagametophytes were excised from sterilized seeds, as described in Example 4.
The control media was solid media #1042, which contains no ABA or brassinolide (Table 47). Treatment media were composed of #1042 plus 0, 0.025, 0.10 or 0.25 μM brassinolide (Table 13). While still liquid, 2 ml media was poured into wells on a culture well plate and allowed to solidify. […] Each replication consisted of ten megagametophytes in adjacent wells on a single well plate. Plates were wrapped with PARAFILM and incubated at 23-24° C. in the dark.
Both extrusion (Table 14) and initiation (Table 15) frequencies were higher in the brassinolide treatments than in the control. There was no clear brassinolide concentration effect within the tested range. […] One of skill in the art can empirically determine the optimal effective upper and lower brassinolide concentration limits for solid media.

[2] = system: Loblolly pine megagametophytes; assay: Loblolly pine extrusion and initiation immersed in liquid media #1071 with brassinolide, eight weeks
Procedure: In Examples 4 and 5, the effect of varying brassinolide concentration in a solid media was measured. This experiment was conducted to determine the optimal concentration of brassinolide in a liquid media. The explants in this experiment were megagametophytes isolated from the cones of four open-pollinated trees representing a multiplicity of genotypes. The seeds contained Stage 2-4 zygotic embryos. Seeds were sterilized as described in Example 1. Seed coats were split and the megagametophytes were isolated by removing integuments and nucellus. Isolated megagametophytes were wholly immersed in liquid media #1071 (Table 47) containing varying concentrations of brassinolide. The five treatments consisted of media containing zero, 0.05, 0.1, 0.15 and 0.2 μM brassinolide (Table 16). Two ml of each media was poured into wells on culture well plates. […]. The experiment consisted of four replications per treatment, per cone collection.
Nevertheless, overall extrusion frequency was increased in the brassinolide treatments as compared to the control (Table 17). Initiation frequency was increased by the addition of brassinolide from 0.05 to 0.2 μM (Table 18). […] Nevertheless, one of skill in the art could empirically determine the upper and lower effective concentration of brassinolide which is effective in promoting initiation in a liquid media.

[3] = system: rice (Oryza sativa) cultivar Taipei 309 dehulled seeds; assay: Rice embryogenic callus diameter on MS media with 2.0 mg/l 2,4-D, two weeks; details: for Callus Diameter (mm) + (std. error): two weeks
Excerpt: In this experiment, brassinolide and elevated atmospheric pressure improved the initiation of embryogenic cultures in rice (Oryza sativa). Rice, an annual angiosperm, is quite taxonomically distant from the conifers used in previous examples. However, as this example makes clear, brassinosteroids and elevated atmospheric pressure effectively increase embryogenic culture initiation of in a wide variety of species.
In this experiment, four initiation treatments were studied, using explants from mature Japaonica rice seeds (cultivar Taipei 309). The explants were dehulled sterilized seeds. About 400 mature seeds were dehulled and surface sterilized in a 5.25% bleach solution for 25 minutes and then rinsed three times with sterile deionized water. About 70 explants were placed into each of four treatment petri dishes containing solid media. The explants were placed with the embryo side up. The basal media was a Murashige and Skoog (MS) media containing 2.0 mg/l 2,4-D. Plates were wrapped in PARAFILM and cultured in the dark at 27° for two weeks.
Treatment 1, the control treatment, consisted of the above-described basal media, contained no brassinolide, and was cultured at atmospheric pressure. Treatment 2 contained the basal media and was cultured at 1.5 atm of pressure. Treatment 3 contained basal to which 0.1 μM brassinolide was added and was cultured at normal atmospheric pressure. Treatment 4 contained basal media to which 1 μM brassinolide was added and was cultured at atmospheric pressure.
After two weeks, embryogenic callus had developed on most of the explants. The embryogenic callus formed in spherical formations around the embryo. During culture, the scutellum elongated and the embryogenic calli formed masses around the base of the scutellum, covering and obscuring the rest of the embryo. Initiation was scored by measuring the diameter of the embrygenic callus on each explant. A larger callus contains more somatic embryos and thus has a greater potential to supply viable embryos for subsequent regeneration of whole plants. Callus size was measured by observing callus under a dissecting scope fitted with an ocular measurement device allowing accurate measurements to 0.1 mm.

CC(C)[C@H](C)[C@@H](O)[C@H](O)[C@@H](C)[C@H]1CC[C@H]2[C@@H]3COC(=O)[C@H]4C[C@H](O)[C@H](O)C[C@]4(C)[C@H]3CC[C@]12C [brassinolide]
extrusion and initiation frequencies vs control ([1]; 0.025, 0.10 or 0.25 μM brassinolide, absence of ABA): higher | % of Megagametophytes Extruding ([1]; genotype 5-1207, 0.025 μM Br): 38.3 (15.9) % | % of Megagametophytes Initiating ([1]; genotype 5-1207, 0.025 μM Br): 27.5 (16.3) % | % of Megagametophytes Extruding ([1]; genotype 5-1207, 0.10 μM Br): 30.0 (13.3) % | % of Megagametophytes Initiating ([1]; genotype 5-1207, 0.10 μM Br): 20 (15.3) % | % of Megagametophytes Extruding ([1]; genotype 5-1207, 0.25 μM Br): 20.0 (10.0) % | % of Megagametophytes Initiating ([1]; genotype 5-1207, 0.25 μM Br): 16.7 (8.8) % | % of Megagametophytes Extruding ([1]; genotype 7-1051, 0.025 μM Br): 43.3 (8.8) % | % of Megagametophytes Initiating ([1]; genotype 7-1051, 0.025 μM Br): 20 (20.0) % | % of Megagametophytes Extruding ([1]; genotype 7-1051, 0.10 μM Br): 46.7 (13.3) % | % of Megagametophytes Initiating ([1]; genotype 7-1051, 0.10 μM Br): 26.7 (8.8) % | % of Megagametophytes Extruding ([1]; genotype 7-1051, 0.25 μM Br): 53.3 (12.0) % | % of Megagametophytes Initiating ([1]; genotype 7-1051, 0.25 μM Br): 16.7 (8.8) % | % of Megagametophytes Extruding ([1]; genotype 11-1055, 0.025 μM Br): 66.7 (3.3) % | % of Megagametophytes Initiating ([1]; genotype 11-1055, 0.025 μM Br): 53.3 (6.7) % | % of Megagametophytes Extruding ([1]; genotype 11-1055, 0.10 μM Br): 63.3 (13.3) % | % of Megagametophytes Initiating ([1]; genotype 11-1055, 0.10 μM Br): 46.7 (14.5) % | % of Megagametophytes Extruding ([1]; genotype 11-1055, 0.25 μM Br): 70.0 (11.5) % | % of Megagametophytes Initiating ([1]; genotype 11-1055, 0.25 μM Br): 53.3 (8.8) % | % of Megagametophytes Extruding ([1]; genotype 11-1507, 0.025 μM Br): 26.7 (6.7) % | % of Megagametophytes Initiating ([1]; genotype 11-1507, 0.025 μM Br): 13.3 (3.3) % | % of Megagametophytes Extruding ([1]; genotype 11-1507, 0.10 μM Br): 36.7 (3.3) % | % of Megagametophytes Initiating ([1]; genotype 11-1507, 0.10 μM Br): 16.7 (8.8) % | % of Megagametophytes Extruding ([1]; genotype 11-1507, 0.25 μM Br): 23.3 (3.3) % | % of Megagametophytes Initiating ([1]; genotype 11-1507, 0.25 μM Br): 13.3 (3.3) % | % of Megagametophytes Extruding ([1]; total, 0.025 μM Br): 43.8% | % of Megagametophytes Initiating ([1]; total, 0.025 μM Br): 28.5% | % of Megagametophytes Extruding ([1]; total, 0.10 μM Br): 44.2% | % of Megagametophytes Initiating ([1]; total, 0.10 μM Br): 27.5% | % of Megagametophytes Extruding ([1]; total, 0.25 μM Br): 41.7% | % of Megagametophytes Initiating ([1]; total, 0.25 μM Br): 25.0% | Initiation frequency vs control ([2]; brassinolide from 0.05 to 0.2 μM, liquid media): increased | % of Megagametophytes Extruding ([2]; genotype FN, 0.05 μM Br): 32.5 (12.5) % | % of Megagametophytes Initiating ([2]; genotype FN, 0.05 μM Br): 20.0 (10.8) % | % of Megagametophytes Extruding ([2]; genotype FN, 0.10 μM Br): 15.0 (6.5) % | % of Megagametophytes Initiating ([2]; genotype FN, 0.10 μM Br): 10.0 (4.1) % | % of Megagametophytes Extruding ([2]; genotype FN, 0.15 μM Br): 40.0 (20.4) % | % of Megagametophytes Initiating ([2]; genotype FN, 0.15 μM Br): 20.0 (12.2) % | % of Megagametophytes Extruding ([2]; genotype FN, 0.2 μM Br): 50.0 (18.3) % | % of Megagametophytes Initiating ([2]; genotype FN, 0.2 μM Br): 35.0 (15.0) % | % of Megagametophytes Extruding ([2]; genotype FO, 0.05 μM Br): 0.0 (0) % | % of Megagametophytes Initiating ([2]; genotype FO, 0.05 μM Br): 0 (0) % | % of Megagametophytes Extruding ([2]; genotype FO, 0.10 μM Br): 0.0 (0) % | % of Megagametophytes Initiating ([2]; genotype FO, 0.10 μM Br): 0 (0) % | % of Megagametophytes Extruding ([2]; genotype FO, 0.15 μM Br): 0.0 (0) % | % of Megagametophytes Initiating ([2]; genotype FO, 0.15 μM Br): 0 (0) % | % of Megagametophytes Extruding ([2]; genotype FO, 0.2 μM Br): 0.0 (0) % | % of Megagametophytes Initiating ([2]; genotype FO, 0.2 μM Br): 0 (0) % | % of Megagametophytes Extruding ([2]; genotype FX, 0.05 μM Br): 17.5 (6.3) % | % of Megagametophytes Initiating ([2]; genotype FX, 0.05 μM Br): 17.5 (6.3) % | % of Megagametophytes Extruding ([2]; genotype FX, 0.10 μM Br): 27.5 (12.5) % | % of Megagametophytes Initiating ([2]; genotype FX, 0.10 μM Br): 25.0 (10.4) % | % of Megagametophytes Extruding ([2]; genotype FX, 0.15 μM Br): 15.0 (5.0) % | % of Megagametophytes Initiating ([2]; genotype FX, 0.15 μM Br): 12.5 (4.8) % | % of Megagametophytes Extruding ([2]; genotype FX, 0.2 μM Br): 17.5 (4.8) % | % of Megagametophytes Initiating ([2]; genotype FX, 0.2 μM Br): 17.5 (4.8) % | % of Megagametophytes Extruding ([2]; genotype FZ, 0.05 μM Br): 0.0 (0) % | % of Megagametophytes Initiating ([2]; genotype FZ, 0.05 μM Br): 0 (0) % | % of Megagametophytes Extruding ([2]; genotype FZ, 0.10 μM Br): 2.5 (2.5) % | % of Megagametophytes Initiating ([2]; genotype FZ, 0.10 μM Br): 2.5 (2.5) % | % of Megagametophytes Extruding ([2]; genotype FZ, 0.15 μM Br): 2.5 (2.5) % | % of Megagametophytes Initiating ([2]; genotype FZ, 0.15 μM Br): 2.5 (2.5) % | % of Megagametophytes Extruding ([2]; genotype FZ, 0.2 μM Br): 0.0 (0) % | % of Megagametophytes Initiating ([2]; genotype FZ, 0.2 μM Br): 0 (0) % | % of Megagametophytes Extruding ([2]; total, 0.05 μM Br): 12.5% | % of Megagametophytes Initiating ([2]; total, 0.05 μM Br): 9.4% | % of Megagametophytes Extruding ([2]; total, 0.10 μM Br): 11.3% | % of Megagametophytes Initiating ([2]; total, 0.10 μM Br): 9.4% | % of Megagametophytes Extruding ([2]; total, 0.15 μM Br): 14.4% | % of Megagametophytes Initiating ([2]; total, 0.15 μM Br): 8.8% | % of Megagametophytes Extruding ([2]; total, 0.2 μM Br): 16.9% | % of Megagametophytes Initiating ([2]; total, 0.2 μM Br): 13.1% | average callus size vs control ([3]; 0.1 μM brassinolide): significantly increased | average callus size vs control ([3]; 1.0 μM brassinolide): did not increase callus size | Callus Diameter (mm) + (std. error) ([3]; +0.1 μM Brassinolide): 4.70 (0.13) mm | Callus Diameter (mm) + (std. error) ([3]; +1.0 μM Brassinolide): 4.19 (0.12) mm

Source: patent US6492174B1, “Methods of initiating embryogenic cultures in plants” (Institute of Paper Science & Technology, priority 2000, dated 2002)
